These results are taken from patent US4101381A, “Method and reagent for the determination of substances forming hydrogen peroxide” (Boehringer Mannheim GmbH, priority 1976, dated 1978).

What is called solubility is the concentration that dissolves in the medium under given conditions.

A short description of series [1]: solubility in an aqueous medium at pH 1. The class given is physicochemical.
For series [2] the following is noted: prior-art method; cited from earlier work.

The structures appear in SMILES notation. ≈ marks a conversion by molar mass, not a printed value. Read-outs that look alike come from different tables or passages of the source.

Take `Cn1c(=NN)sc2cc(S(=O)(=O)O)ccc21` [MBTH sulfonate, 3-methyl-2-(sulfonyl)-benzothiazolonehydrazone]: the solubility in series [1] (read-out: solubility) was 6 mg/mL.

For the molecule `Cn1c(=NN)sc2ccccc21` [MBTH, 3-methylbenzothiazolonehydrazone], the stability entry in series [2] is “low stability”. In addition, the solubility in series [1] (read-out: solubility in an aqueous medium) stood at 48 mg/mL (≈ 268 mM).
